Columns and labels:
[1] = target: Epidermal growth factor receptor [T790M,L858R] (Homo sapiens, UniProt P00533, L858R/T790M); assay: Biochemical Assays for Inhibition of Wild-Type and Mutant EGFRs
Method: (§1) Briefly, specific kinase/substrate pairs along with required cofactors were prepared in reaction buffer; 20 mM Hepes pH 7.5, 10 mM […], 1 mM EGTA, 0.02% Brij35, 0.02 mg/ml BSA, 0.1 mM Na3VO4, 2 mM DTT, 1% DMSO. Compounds were delivered into the reaction, followed […] later by addition of a mixture of ATP (Sigma, St. Louis MO) and 33P ATP (Perkin Elmer, Waltham MA) to a final concentration of 10 μM. Reactions were carried out at room temperature for 120 min, followed by spotting of the reactions onto P81 ion exchange filter paper (Whatman Inc., Piscataway, NJ). Unbound phosphate was removed by extensive washing of filters in 0.75% phosphoric acid. […] IC50 values and curve fits were obtained using Prism (GraphPad Software).

[2] = target: Epidermal growth factor receptor (Homo sapiens, UniProt P00533); assay: as above
Method: as §1

[3] = target: Epidermal growth factor receptor [L858R,T790M,C797S] (Homo sapiens, UniProt P00533, C797S/L858R/T790M); assay: as above
Method: as §1

[4] = target: Epidermal growth factor receptor [L858R] (Homo sapiens, UniProt P00533, L858R); assay: as above
Method: as §1

[5] = target: Dual specificity protein kinase CLK2 (Homo sapiens, UniProt P49760); assay: Inhibition of CLK, CLK2, CLK3 and CLK4 Kinase Activity Evaluated at Nanosyn
Method: (§2) Table 3: Kinase protein and substrate were pre-diluted in the HEPES assay buffer (100 mM HEPES, pH 7.5, 0.01% Triton X-100, 0.1% BSA, 5 mM MgCl2, […] DTT, […], […] Beta-Glycerophosphate) dispensed into 384 well plate (5 μL per well). Control samples (0%-inhibition in the absence of inhibitor, DMSO only) and 100%-inhibition (in the absence of enzyme) were assembled in replicates of six and were used to calculate %-inhibition in the presence of compounds. Test compounds were added to the protein samples by acoustic dispensing (Labcyte Echo550). Concentration of DMSO was equalized to 1% in all samples. Reactions were initiated by addition of ATP by acoustic dispensing (Labcyte Echo550) and incubated according to assay specific incubation time. After incubation. 5 μL of Promega ADP-Glo reagent was added and incubated for 40 minutes. After 40 minutes, 10 uL of Promega kinase detection reagent was added. After 10 min of incubation with Kinase detection reagent, the luminescence was read on microplate reader (Biotek Synergy).

[6] = target: Dual specificity protein kinase CLK1 (Homo sapiens, UniProt P49759); assay: as above
Method: as §2

[7] = target: Dual specificity protein kinase CLK4 (Homo sapiens, UniProt Q9HAZ1); assay: as above
Method: as §2

[8] = target: Dual specificity protein kinase CLK3 (Homo sapiens, UniProt P49761); assay: as above
Method: as §2

Chain of Epidermal growth factor receptor [T790M,L858R] (P00533 25-1210 T790M/L858R limits assumed): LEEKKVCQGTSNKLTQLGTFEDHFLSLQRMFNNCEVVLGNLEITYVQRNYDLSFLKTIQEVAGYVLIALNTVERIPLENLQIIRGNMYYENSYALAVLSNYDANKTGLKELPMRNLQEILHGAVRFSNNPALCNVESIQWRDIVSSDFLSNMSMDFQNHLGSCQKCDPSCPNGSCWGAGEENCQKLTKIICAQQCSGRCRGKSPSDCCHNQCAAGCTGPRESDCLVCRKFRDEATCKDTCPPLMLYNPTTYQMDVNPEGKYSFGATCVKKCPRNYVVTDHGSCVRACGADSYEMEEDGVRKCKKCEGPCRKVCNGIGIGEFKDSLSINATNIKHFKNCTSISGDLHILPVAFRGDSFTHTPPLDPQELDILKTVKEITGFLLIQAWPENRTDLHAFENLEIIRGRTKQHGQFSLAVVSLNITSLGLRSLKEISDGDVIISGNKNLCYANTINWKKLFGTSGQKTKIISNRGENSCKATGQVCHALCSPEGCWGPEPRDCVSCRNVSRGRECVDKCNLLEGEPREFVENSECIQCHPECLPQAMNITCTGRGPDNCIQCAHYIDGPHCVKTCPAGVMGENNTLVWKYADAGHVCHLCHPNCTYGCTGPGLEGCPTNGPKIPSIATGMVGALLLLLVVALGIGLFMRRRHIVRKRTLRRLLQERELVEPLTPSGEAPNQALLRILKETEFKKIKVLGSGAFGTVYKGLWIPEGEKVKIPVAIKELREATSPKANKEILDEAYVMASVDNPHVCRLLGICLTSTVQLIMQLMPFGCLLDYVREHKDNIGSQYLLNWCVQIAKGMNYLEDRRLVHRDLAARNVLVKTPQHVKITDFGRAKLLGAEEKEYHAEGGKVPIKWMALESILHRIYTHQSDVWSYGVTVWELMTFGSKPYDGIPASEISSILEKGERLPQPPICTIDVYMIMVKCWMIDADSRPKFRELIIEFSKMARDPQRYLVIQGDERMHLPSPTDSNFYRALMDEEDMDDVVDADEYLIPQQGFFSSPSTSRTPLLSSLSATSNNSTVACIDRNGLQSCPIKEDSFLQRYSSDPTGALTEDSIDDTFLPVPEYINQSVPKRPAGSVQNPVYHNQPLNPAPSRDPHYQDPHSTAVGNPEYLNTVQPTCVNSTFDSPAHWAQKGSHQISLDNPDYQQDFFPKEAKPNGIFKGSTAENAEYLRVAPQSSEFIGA
Chain of Epidermal growth factor receptor [L858R] (P00533 25-1210 L858R limits assumed): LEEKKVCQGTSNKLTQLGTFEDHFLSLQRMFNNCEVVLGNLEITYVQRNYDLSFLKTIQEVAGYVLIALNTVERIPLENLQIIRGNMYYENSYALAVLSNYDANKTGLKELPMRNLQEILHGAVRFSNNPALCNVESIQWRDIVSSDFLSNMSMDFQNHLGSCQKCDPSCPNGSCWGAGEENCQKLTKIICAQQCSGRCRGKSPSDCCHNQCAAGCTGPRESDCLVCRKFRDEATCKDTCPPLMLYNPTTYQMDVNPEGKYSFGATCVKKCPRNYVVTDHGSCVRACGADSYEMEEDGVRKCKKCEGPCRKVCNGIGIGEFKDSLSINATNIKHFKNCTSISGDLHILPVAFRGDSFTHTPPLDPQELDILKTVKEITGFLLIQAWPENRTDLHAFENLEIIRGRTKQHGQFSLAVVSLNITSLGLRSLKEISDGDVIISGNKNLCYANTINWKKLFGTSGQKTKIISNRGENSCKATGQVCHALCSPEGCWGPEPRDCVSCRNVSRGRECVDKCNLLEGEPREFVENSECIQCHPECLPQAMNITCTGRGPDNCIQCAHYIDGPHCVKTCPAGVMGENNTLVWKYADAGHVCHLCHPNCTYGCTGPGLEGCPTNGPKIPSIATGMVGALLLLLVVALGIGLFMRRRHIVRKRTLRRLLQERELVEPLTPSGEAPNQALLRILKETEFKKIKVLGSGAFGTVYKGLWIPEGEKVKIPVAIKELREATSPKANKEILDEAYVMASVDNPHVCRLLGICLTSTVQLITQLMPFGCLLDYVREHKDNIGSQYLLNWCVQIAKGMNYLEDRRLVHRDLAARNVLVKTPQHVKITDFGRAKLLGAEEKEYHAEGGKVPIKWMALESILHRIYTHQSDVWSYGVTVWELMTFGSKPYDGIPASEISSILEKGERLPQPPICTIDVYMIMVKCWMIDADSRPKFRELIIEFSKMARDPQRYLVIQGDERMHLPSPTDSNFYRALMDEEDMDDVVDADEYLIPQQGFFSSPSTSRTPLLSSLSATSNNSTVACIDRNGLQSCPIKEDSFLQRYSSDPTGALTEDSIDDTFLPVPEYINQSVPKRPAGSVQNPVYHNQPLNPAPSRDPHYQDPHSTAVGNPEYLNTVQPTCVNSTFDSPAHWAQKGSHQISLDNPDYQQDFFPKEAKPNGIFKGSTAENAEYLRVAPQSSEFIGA
Chain of Epidermal growth factor receptor (P00533 whole entry): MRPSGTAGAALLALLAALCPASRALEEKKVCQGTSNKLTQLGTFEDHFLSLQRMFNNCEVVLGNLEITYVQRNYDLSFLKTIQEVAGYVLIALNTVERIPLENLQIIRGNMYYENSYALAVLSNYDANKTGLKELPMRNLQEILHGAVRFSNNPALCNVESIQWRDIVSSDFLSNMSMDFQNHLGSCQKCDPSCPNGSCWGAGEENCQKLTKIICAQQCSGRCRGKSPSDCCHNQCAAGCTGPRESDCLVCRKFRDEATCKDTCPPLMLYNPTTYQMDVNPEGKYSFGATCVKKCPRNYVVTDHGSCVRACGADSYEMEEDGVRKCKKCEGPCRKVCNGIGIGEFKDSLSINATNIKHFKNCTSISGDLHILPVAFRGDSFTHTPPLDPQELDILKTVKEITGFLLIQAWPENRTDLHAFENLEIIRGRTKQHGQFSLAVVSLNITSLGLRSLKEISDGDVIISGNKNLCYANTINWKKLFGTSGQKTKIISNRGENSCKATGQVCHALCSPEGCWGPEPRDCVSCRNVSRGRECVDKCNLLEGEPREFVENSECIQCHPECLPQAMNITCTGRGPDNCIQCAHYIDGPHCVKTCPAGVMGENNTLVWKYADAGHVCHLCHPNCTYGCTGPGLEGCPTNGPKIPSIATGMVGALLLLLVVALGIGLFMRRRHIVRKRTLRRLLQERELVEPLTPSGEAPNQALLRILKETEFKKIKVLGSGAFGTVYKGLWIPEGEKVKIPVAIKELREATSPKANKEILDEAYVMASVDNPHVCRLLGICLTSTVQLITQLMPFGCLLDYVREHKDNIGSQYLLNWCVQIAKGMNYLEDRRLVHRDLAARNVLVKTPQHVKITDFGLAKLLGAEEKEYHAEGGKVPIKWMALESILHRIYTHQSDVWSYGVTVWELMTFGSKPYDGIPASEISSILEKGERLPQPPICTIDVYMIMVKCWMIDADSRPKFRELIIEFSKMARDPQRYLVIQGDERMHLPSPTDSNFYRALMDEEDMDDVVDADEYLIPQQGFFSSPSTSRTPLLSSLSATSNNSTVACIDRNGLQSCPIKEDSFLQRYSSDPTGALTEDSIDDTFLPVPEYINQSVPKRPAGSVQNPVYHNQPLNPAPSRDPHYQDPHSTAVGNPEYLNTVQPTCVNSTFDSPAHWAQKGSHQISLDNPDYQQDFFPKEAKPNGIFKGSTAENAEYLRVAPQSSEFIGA
Chain of Epidermal growth factor receptor [L858R,T790M,C797S] (P00533 25-1210 T790M/C797S/L858R limits assumed): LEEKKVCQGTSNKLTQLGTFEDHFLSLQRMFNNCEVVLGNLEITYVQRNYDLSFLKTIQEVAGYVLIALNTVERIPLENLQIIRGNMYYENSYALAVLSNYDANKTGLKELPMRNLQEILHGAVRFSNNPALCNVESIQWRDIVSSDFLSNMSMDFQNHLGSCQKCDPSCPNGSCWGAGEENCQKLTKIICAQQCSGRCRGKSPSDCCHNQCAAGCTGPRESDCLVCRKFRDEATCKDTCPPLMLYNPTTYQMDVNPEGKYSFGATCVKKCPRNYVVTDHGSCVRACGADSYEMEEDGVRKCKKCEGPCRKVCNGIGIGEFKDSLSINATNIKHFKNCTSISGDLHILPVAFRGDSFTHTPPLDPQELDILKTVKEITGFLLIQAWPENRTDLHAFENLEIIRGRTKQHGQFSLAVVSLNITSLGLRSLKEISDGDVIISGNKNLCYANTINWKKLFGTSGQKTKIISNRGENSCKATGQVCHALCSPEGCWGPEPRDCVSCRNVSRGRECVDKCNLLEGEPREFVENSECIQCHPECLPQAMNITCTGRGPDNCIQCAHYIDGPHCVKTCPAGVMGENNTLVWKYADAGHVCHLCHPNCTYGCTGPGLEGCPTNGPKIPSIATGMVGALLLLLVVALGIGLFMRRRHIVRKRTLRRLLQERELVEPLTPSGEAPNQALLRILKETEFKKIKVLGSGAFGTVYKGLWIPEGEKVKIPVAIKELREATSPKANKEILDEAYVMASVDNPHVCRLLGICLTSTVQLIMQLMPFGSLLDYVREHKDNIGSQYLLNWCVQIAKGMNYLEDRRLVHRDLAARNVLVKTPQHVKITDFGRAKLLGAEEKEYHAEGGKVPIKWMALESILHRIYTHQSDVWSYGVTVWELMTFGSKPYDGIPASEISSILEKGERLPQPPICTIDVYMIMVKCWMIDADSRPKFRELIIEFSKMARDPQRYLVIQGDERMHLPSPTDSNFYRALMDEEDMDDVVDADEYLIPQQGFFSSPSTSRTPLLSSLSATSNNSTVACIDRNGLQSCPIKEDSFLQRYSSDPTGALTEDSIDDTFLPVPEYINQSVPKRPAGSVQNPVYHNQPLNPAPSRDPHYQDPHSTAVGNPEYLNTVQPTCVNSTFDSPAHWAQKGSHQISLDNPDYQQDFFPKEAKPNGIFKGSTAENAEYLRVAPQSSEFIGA

| SMILES | IC50 [1] | IC50 [2] | IC50 [3] | IC50 [4] | IC50 [5] | IC50 [6] | IC50 [7] | IC50 [8] |
| --- | --- | --- | --- | --- | --- | --- | --- | --- |
| Cc1c2c(nn1[C@H]1CCN(C)C[C@@H]1O)OCCCOc1c(cnn1C)-c1ccc3[nH]nc(c3c1)/C=C/2 (racemic) [US20250353864, Example 83] | 1.48 nM | 61.5 nM | 5.29 nM | 19 nM |  |  |  |  |
| CCc1nn(C)c2c1/C=C/c1n[nH]c3ccc(cc13)-c1cnn(C)c1OCCCO2 [US20250353864, Example 10] |  | 973 nM | 42.2 nM | 181 nM |  |  |  |  |
| Cc1ccc2c(n1)/C=C/c1n[nH]c3ccc(cc13)-c1cnn(C)c1O[C@@H](C)CCO2 [US20250353864, Example 39] |  | 1070 nM | 35.3 nM | 222 nM |  |  |  |  |
| Cc1nn(C)c2c1/C=C/c1n[nH]c3ccc(cc13)-c1c(C)nn(C)c1OCCN(C)C2 [US20250353864, Example 47] | 79.3 nM |  | 170 nM | 822 nM | 48.3 nM | 9.92 nM | 2.7 nM | 1000 nM |
| Cc1c2c(nn1CCN1CCCC1)OCCOC(C)c1c(cnn1C)-c1ccc3[nH]nc(c3c1)/C=C/2 (stereo not given) [US20250353864, Example 84] | 30.8 nM | 1080 nM | 28.2 nM | 285 nM |  |  |  |  |
| Cc1c2c(nn1CCN1CCCC1)CN(C)C[C@H](C)Oc1c(cnn1C)-c1ccc3[nH]nc(c3c1)/C=C/2 [US20250353864, Example 89] | 0.06 nM | 64 nM | 0.45 nM | 4.66 nM |  |  |  |  |

Results, then the compound that gave them:

| IC50 [1] | IC50 [2] | IC50 [3] | IC50 [4] | IC50 [5] | IC50 [6] | IC50 [7] | IC50 [8] | SMILES |
| --- | --- | --- | --- | --- | --- | --- | --- | --- |
| 10.8 nM | 413 nM | 28.5 nM | 132 nM |  |  |  |  | Cc1nn(C)c2c1/C=C/c1n[nH]c3ccc(cc13)-c1cnn(C)c1CN(C)C[C@H](C)O2 (single isomer, unassigned) [US20250353864, Example 97] |
|  | 0.4 nM | 0.28 nM |  |  |  |  |  | CCOc1nn(CCO)c2c1/C=C/c1n[nH]c3ccc(cc13)-c1cnn(C)c1O[C@H](C)[C@H]1CCCN1C2 (single isomer, unassigned) [US20250353864, Example 241] |
| 9.27 nM | 381 nM | 4.93 nM | 124 nM |  |  |  |  | CCOc1nn(CCO)c2c1/C=C/c1n[nH]c3ccc(cc13)-c1cnn(C)c1OC1CCCN(C2)C1C (stereo not given) [US20250353864, Example 242] |
